Results as given in patent US11912693B2, “Compounds for modulating S1P1 activity and methods of using the same” (TREVENA, INC., priority 2017, dated 2024).

What was measured:
[1] = molecular target: T1, human sphingosine-1-phosphate receptor 1 (S1P1) (Homo sapiens (Human), UniProt P21453); assay: Inhibition of cAMP production (HTRF cAMP HiRange), S1P1 CHO-K1 cells; assay type: cell-based; details: for Emax: CHO-K1, efficacy (SPAN) normalized to fingolimod, read-out: hS1P1 cAMP SPAN; for hS1P1 cAMP pEC50: inhibition of cAMP production, S1P1 CHO-K1 cells
Outline: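 CHO-K1 cells stably co-expressing human S1P1 (C-terminal Prolink tag) and EA-β-arrestin2 were grown in AssayComplete Media 6 at 37° C. and 5% CO2, plated, and incubated overnight. Agonist-driven inhibition of intracellular cAMP was read by TR-FRET with the HTRF cAMP HiRange kit on a PheraStar reader. Potency is pEC50, and efficacy (SPAN) is normalized to fingolimod.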
Target sequence in this assay (P21453 whole entry, looked up): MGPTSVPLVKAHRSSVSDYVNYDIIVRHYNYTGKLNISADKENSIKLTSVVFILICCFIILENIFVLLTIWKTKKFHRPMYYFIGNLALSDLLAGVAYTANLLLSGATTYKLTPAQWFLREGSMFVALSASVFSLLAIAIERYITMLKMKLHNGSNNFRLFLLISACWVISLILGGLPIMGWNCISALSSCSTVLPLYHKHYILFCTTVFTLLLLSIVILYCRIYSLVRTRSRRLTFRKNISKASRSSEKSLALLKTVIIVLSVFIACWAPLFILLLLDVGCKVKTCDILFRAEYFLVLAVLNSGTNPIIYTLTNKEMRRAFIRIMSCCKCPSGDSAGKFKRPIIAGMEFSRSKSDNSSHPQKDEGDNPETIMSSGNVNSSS

[2] = molecular target: T1, human sphingosine-1-phosphate receptor 1 (S1P1); assay: β-Arrestin2 recruitment assay (PathHunter), S1P1 CHO-K1 cells; assay type: cell-based; details: for Emax: CHO-K1, efficacy (SPAN) normalized to fingolimod, read-out: hS1P1 B-arrestin2 SPAN; for hS1P1 B-arrestin2 pEC50: β-arrestin2 recruitment, S1P1 CHO-K1 cells
Outline: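 Enzyme-fragment complementation read-out: agonist-driven β-arrestin2 binding to ProLink-tagged human S1P1 in stable CHO-K1 cells restores β-galactosidase, measured 1 h at room temperature after a 60 min 37° C. compound incubation. Potency as pEC50, efficacy relative to fingolimod (SPAN).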
Target sequence in this assay (P21453 whole entry, looked up): as above
Target sequence in this assay (P32121 whole entry partner, looked up): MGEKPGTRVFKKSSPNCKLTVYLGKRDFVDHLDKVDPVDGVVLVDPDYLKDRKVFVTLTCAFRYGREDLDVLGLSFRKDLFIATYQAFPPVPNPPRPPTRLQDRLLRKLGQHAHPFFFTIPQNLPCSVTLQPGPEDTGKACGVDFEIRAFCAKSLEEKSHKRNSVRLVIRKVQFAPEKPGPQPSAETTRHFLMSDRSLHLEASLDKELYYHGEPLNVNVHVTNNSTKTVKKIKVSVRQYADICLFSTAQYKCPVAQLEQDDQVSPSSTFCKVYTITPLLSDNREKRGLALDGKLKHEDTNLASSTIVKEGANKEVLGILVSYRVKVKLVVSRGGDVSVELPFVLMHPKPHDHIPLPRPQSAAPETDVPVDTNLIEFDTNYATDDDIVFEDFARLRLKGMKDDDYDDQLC

[3] = test system: paclitaxel induced peripheral neuropathy; assay: Reversal of allodynia induced by paclitaxel in mice (s.c. or p.o., von Frey frequency method); assay type: in vivo, c57bl/6 mice; details: Mus musculus; for inhibition in vivo at 3 mg/kg: po, 1 h, 3 mg/kg p.o., tested 60 min after dosing, read-out: Screen @ 3 mg/kg po (% MPE); for inhibition in vivo at 1 mg/kg: sc, 0.5 h, 1 mg/kg s.c., tested 30 min after dosing, read-out: Screen @ 1 mg/kg sc (% MPE)
Description: Compounds were tested for efficacy in mouse models of chemotherapy induced peripheral neuropathy. […] For these studies […]/6 mice are habituated to the test environment and baseline measurements of pain sensitivity are assessed. To determine mechanical responses, the threshold for responses to punctate mechanical stimuli (mechanical hyperalgesia) was tested according to the frequency method. In brief, the plantar surface of the animal hindpaw was stimulated with a single von Frey monofilament (0.4 g) for approximately 1-2 seconds. If there was a withdrawal response, it was recorded as a positive response. A response was defined as a lifting or shaking of the paw upon stimulation. This was repeated ten times for each mouse. The final measurement for each mouse is the % non-response to stimulation for the ten trials. The % non-response to stimulation is converted to a % MPE. For paclitaxel induced peripheral neuropathy, a series of injections of PAC (6 mg/kg, i.p.) on days 1, 3, 5 and 7 is used to induce peripheral neuropathy. After approximately 14 days from the initiation of PAC injections, animals are re-assessed for mechanical sensitivity. […] On test day animals are dosed with compounds either subcutaneously or orally and tested for mechanical response by the frequency method either 30 min (s.c.) or 60 min (p.o.) after drug administration. Data is presented as a % MPE. For oxaliplatin induced peripheral neuropathy, a series of injections of OXA (4 mg/kg, i.p.) on days 1-5 is used to induce peripheral neuropathy. After approximately 14 days from the initiation of PAC injections, animals are re-assessed for mechanical sensitivity. […] On test day animals are dosed with compounds subcutaneously and tested for mechanical response by the frequency method 30 min after drug administration. Data is presented as a % MPE. One or more of the compounds show reversal of chemotherapeutic induced peripheral neuropathy.

Structure (SMILES) | Emax [1] [%] | hS1P1 cAMP pEC50 [1] | Emax [2] [%] | hS1P1 B-arrestin2 pEC50 [2] | inhibition in vivo at 3 mg/kg [3] [%] | inhibition in vivo at 1 mg/kg [3] [%]
COc1cnccc1-c1nc(-c2ccc3c(c2)nnn3C(C)C)no1 [Compound 606, 3-(1-isopropyl-1H-benzo[d][1,2,3]triazol-5-yl)-5-(3-methoxypyridin-4-yl)-1,2,4-oxadiazole] | > 75 | >6.5 | > 75 | >5 | > 50 | –
CC(C)n1nnc2cc(-c3noc(-c4ccccc4C(F)(F)F)n3)ccc21 [Compound 33, 3-(1-isopropylbenzotriazol-5-yl)-5-[2-(trifluoromethyl)phenyl]-1,2,4-oxadiazole] | – | >6.5 | – | >5 | – | < 50
CCC1(CC)CC(=O)c2cc(-c3nc(-c4ccc(NS(C)(=O)=O)cc4OC)no3)ccc2O1 [Compound 568, N-{4-[5-(2,2-diethyl-4-oxo-3,4-dihydro-2H-1-benzopyran-6-yl)-1,2,4-oxadiazol-3-yl]-3-methoxyphenyl}methanesulfonamide] | – | >6.5 | – | >5 | < 50 | –
CCC1(CC)CC(=O)c2cc(-c3nc(-c4ccc(NC(C)=O)cc4OC(F)(F)F)no3)ccc2O1 [Compound 584, N-{4-[5-(2,2-diethyl-4-oxo-3,4-dihydro-2H-1-benzopyran-6-yl)-1,2,4-oxadiazol-3-yl]-3-(trifluoromethoxy)phenyl}acetamide] | > 75 | >6.5 | > 75 | >5 | > 50 | –
CCC1(CC)CC(=O)c2cc(-c3nc(-c4ccnc(N)c4)no3)ccc2O1 [Compound 513, 6-(3-(2-aminopyridin-4-yl)-1,2,4-oxadiazol-5-yl)-2,2-diethylchroman-4-one] | – | >6.5 | – | >5 | < 50 | –
CCC1(CC)CC(=O)c2cc(-c3nc(-c4cccnc4C)no3)ccc2O1 [Compound 564, 2,2-diethyl-6-(3-(2-methylpyridin-3-yl)-1,2,4-oxadiazol-5-yl)chroman-4-one] | – | >6.5 | – | >5 | > 50 | –
Cc1cn(C)nc1-c1noc(-c2ccc3c(c2)nnn3C(C)C)n1 [Compound 519, 5-[3-(1,4-dimethyl-1H-pyrazol-3-yl)-1,2,4-oxadiazol-5-yl]-1-(propan-2-yl)-1H-1,2,3-benzotriazole] | > 75 | >6.5 | > 75 | >5 | < 50 | –
CCC1(CC)CC(=O)c2cc(-c3nc(-c4cccnc4C(F)(F)F)no3)ccc2O1 [Compound 562, 2,2-diethyl-6-(3-(2-(trifluoromethyl)pyridin-3-yl)-1,2,4-oxadiazol-5-yl)chroman-4-one] | – | >6.5 | – | >5 | > 50 | –
CC(C)Nc1ccc(-c2nc(-c3ccc4c(c3)CCNC4=O)no2)cc1C#N [Compound 442, 2-(isopropylamino)-5-(3-(1-oxo-1,2,3,4-tetrahydroisoquinolin-6-yl)-1,2,4-oxadiazol-5-yl)benzonitrile] | – | >6.5 | – | >5 | > 50 | –
N#Cc1cc(-c2nnc(-c3ccc4[nH]cnc4c3)o2)ccc1NCC(F)F [Compound 359, 5-[5-(1H-1,3-benzodiazol-5-yl)-1,3,4-oxadiazol-2-yl]-2-[(2,2-difluoroethyl)amino]benzonitrile] | > 75 | >6.5 | > 75 | >5 | > 50 | –
CC(C)Nc1ccc(-c2nc(-c3ccc4c(c3)CC(=O)N4)no2)cc1C#N [Compound 107, 2-(isopropylamino)-5-(3-(2-oxoindolin-5-yl)-1,2,4-oxadiazol-5-yl)benzonitrile] | > 75 | >6.5 | > 75 | >5 | – | < 50
C=CCNc1ccc(-c2nc(-c3ccc4c(c3)CC(=O)N4)no2)cc1C#N [Compound 224, 2-(allylamino)-5-(3-(2-oxoindolin-5-yl)-1,2,4-oxadiazol-5-yl)benzonitrile] | > 75 | >6.5 | > 75 | >5 | – | > 50
N#Cc1cc(-c2nnc(-c3cccc4[nH]cnc34)o2)ccc1NCC(F)F [Compound 586, 5-[5-(1H-1,3-benzodiazol-4-yl)-1,3,4-oxadiazol-2-yl]-2-[(2,2-difluoroethyl)amino]benzonitrile] | – | >6.5 | – | >5 | < 50 | –
CC(C)n1nnc2cc(-c3noc(-c4ccccc4N(C)C)n3)ccc21 [Compound 615, N,N-dimethyl-2-{3-[1-(propan-2-yl)-1H-1,2,3-benzotriazol-5-yl]-1,2,4-oxadiazol-5-yl}aniline] | – | >6.5 | – | >5 | > 50 | –
CCC1(CC)CC(=O)c2cc(-c3nc(-c4ccc5c(c4)nnn5C(C)C)no3)ccc2O1 [Compound 305, 2,2-diethyl-6-(3-(1-isopropyl-1H-benzo[d][1,2,3]triazol-5-yl)-1,2,4-oxadiazol-5-yl)chroman-4-one] | – | <6.5 | – | <5 | – | > 50
N#Cc1cc(-c2nnc(-c3ccc4[nH]cnc4c3)o2)ccc1NC(CF)CF [Compound 600, 5-[5-(1H-1,3-benzodiazol-5-yl)-1,3,4-oxadiazol-2-yl]-2-[(1,3-difluoropropan-2-yl)amino]benzonitrile] | > 75 | >6.5 | > 75 | >5 | < 50 | –
CC(C)Nc1ccc(-c2nnc(-c3ccc4oc(=O)[nH]c4c3)o2)cc1C#N [Compound 637, 5-[5-(2-oxo-2,3-dihydro-1,3-benzoxazol-5-yl)-1,3,4-oxadiazol-2-yl]-2-[(propan-2-yl)amino]benzonitrile] | – | >6.5 | – | >5 | > 50 | –
Cc1nc2cc(-c3nnc(-c4ccc(NC(C)C)c(C#N)c4)o3)ccc2[nH]1 [Compound 560, 5-[5-(2-methyl-1H-1,3-benzodiazol-5-yl)-1,3,4-oxadiazol-2-yl]-2-[(propan-2-yl)amino]benzonitrile] | – | >6.5 | – | >5 | > 50 | –
CC(C)n1nnc2cc(-c3noc(-c4cccc5c4CCC5O)n3)ccc21 (centres unmarked) [Compound 636, 4-{3-[1-(propan-2-yl)-1H-1,2,3-benzotriazol-5-yl]-1,2,4-oxadiazol-5-yl}-2,3-dihydro-1H-inden-1-ol] | – | >6.5 | – | >5 | < 50 | –
